Data as given in patent publication US20070274929A1, “ORAL COMPOSITION COMPRISING CHLORHEXIDINE AND MALTITOL OR ERYTHRITOL OR A MIXTURE THEREOF” (priority 2000, published 2007).

Assay: Masking the bitterness of chlorhexidine, panel of trained taste assessors (sip-and-spit, labelled magnitude line scale)
Assay type: in vivo
Details: for % suppression of bitterness of 0.1% CHXG: 8% w/w ethanol in water, reference bitterness set at 70 on line scale 0-100; for % suppression of bitterness of 0.1% CHXG / difference of the bitterness of the CHXG/inhibitor mixture from the 0.1% CHXG reference (analysis of variance): n=18; for difference of the bitterness of the CHXG/inhibitor mixture from the 0.1% CHXG reference (analysis of variance): ANOVA at the 5% level, reference 0.1% CHXG in 8% ethanol-water; for masking the bitter taste of chlorhexidine compared with xylitol: inhibitors at 2 & 4% w/w, 0.1% CHXG
Protocol: The efficacy of maltitol, erythritol and xylitol to mask the bitter taste of chlorhexidine digluconate (CHXG) was evaluated using a panel of trained taste assessors.
All test solutions were made up in still mineral water. All tasting sessions were carried out at room temperature (20° C.). Samples were made up w/v (unless otherwise specified) one day before tasting and stored in the refrigerator overnight, then allowed to equilibrate to room temperature the next day before serving.
Eighteen panellists volunteered for the study. The panellists were first screened for their taste acuity using basic identification ranking techniques. 0.20% sodium chloride, 0.054% citric acid, 0.8% sucrose, 0.04% caffeine and 0.15% potassium alum were used to determine their ability to sense and identify saltiness, sourness, sweetness, bitterness and astringency, respectively. The detection and identification thresholds for bitterness were then measured using eight increasing concentrations of quinine hydrochloride (over a range of 0-0.0012%). Panellists were also instructed to rank four random concentrations of caffeine in increasing order of bitterness intensity. A similar experiment was done using quinine hydrochloride. All panellists performed well in those tasks.
The screened panellists were then asked to assess the bitterness intensities of the chlorhexidine mixtures using a “Labelled magnitude line scale” (LMS) as defined by Green et al., Chemical Senses, 1996, 21, 323-334. Solutions were made up containing the bitter inhibitors, 0.1% w/w CHXG, 8% w/w ethanol in water. The following concentrations of inhibitors were used:
Two samples were presented at any one time, one of which was the reference (0.1% CHXG in 8% ethanol-water). Sample presentation was randomised and was duplicated during the course of the study.
The “sip-and-spit” method was used for tasting CHXG solutions. Panellists were instructed to sip 5 ml sample, swirl it around their mouth and spit it out immediately before judging its bitterness intensity. This technique was expected to take 3-4 seconds.
Panellists were instructed to taste the reference first and memorise its bitter intensity. This intensity was assigned the number 70 on the line scale marked 0-100. Panellists were asked to wait until they could no longer feel any bitterness in their mouths (approximately 10 min) before tasting the second solution, whose intensity they then ranked in proportion to the intensity of the reference on the same line scale. Panellists were provided with mineral water to cleanse their palates.
Analysis of Variance (ANOVA) at the 5% level of significance was performed using the EXCEL software to find out whether there were any significant differences between the CHXG reference and the CHXG/inhibitor mixtures. A Fisher Least Significant Difference (LSD) test (O'Mahony M, 1986, Sensory Evaluation of Food—Statistical Methods and Procedures, Marcel Dekker, Inc, New York) was carried out on those samples where a significant difference had been found, to identify which sample means differ from the reference.

[1] = inhibitor 2% w/w in 0.1% w/w CHXG
[2] = inhibitor 4% w/w in 0.1% w/w CHXG

| SMILES | % suppression of bitterness of 0.1% CHXG [1] | % suppression of bitterness of 0.1% CHXG [2] | difference of the bitterness of the CHXG/inhibitor mixture from the 0.1% CHXG reference (analysis of variance) | masking the bitter taste of chlorhexidine compared with xylitol |
| --- | --- | --- | --- | --- |
| OC[C@@H](O)[C@H](O)[C@@H](O)CO [Xylitol, reference compound] | 14.3% | 13.6% |  |  |
| OC[C@@H](O)[C@@H](O[C@H]1O[C@H](CO)[C@@H](O)[C@H](O)[C@H]1O)[C@H](O)[C@@H](O)CO [Maltitol] | 26.9% | 32.6% | significantly different | more effective than xylitol |
| OC[C@@H](O)[C@@H](O)CO [Erythritol] | 29.2% | 28.2% | significantly different | more effective than xylitol |
